# Reference: paper PMC8866981 (Journal of Experimental Pharmacology, 2021)
# Key:
# HIV-1IIIB = type: cell-based, Human immunodeficiency virus type 1; details: HIV-1IIIB infected MT-4 cells, 5 days, mean ± S.E.M (n=3)
# [1] = system: Human T-lymphocytic MT-4 cells; assay: Cytotoxicity test, MTT colorimetric assay; type: cell-based; details: 5 days, percentage inhibition of cell growth, mean ± S.E.M (n=3)
SMILES,"EmaxAV (maximum antiviral effect %, CPE inhibition %) (HIV-1IIIB)",EmaxC (maximum cytotoxic effect %) [1]
"Cc1cn([C@H]2C[C@H](N=[N+]=[N-])[C@@H](CO)O2)c(=O)[nH]c1=O [AZT, zidovudine]",83%,–
"Cc1ccnc2c1NC(=O)c1cccnc1N2C1CC1 [NVP, nevirapine]",–,> 35%
